Measured values from PubChem BioAssay AID248 (DTP/NCI, 2004).
Values joined by “and” are separate entries in the source; they are usually repeats but may differ in a detail not shown here. Equal values may be shown once. Inconclusive results and toxic doses are left out. Cut-off read from the data, not from the text of the source: active = T/C of 150% or more; inactive = T/C below 125%.

Tested on: L1210 leukemia ip in BDF1 mice, survival T/C
Experiment: NCI In Vivo Anticancer Drug Screen. Data for tumor model L1210 Leukemia (intraperitoneal) in B6D2F1 (BDF1) mice
Details: endpoint: mean survival time, higher = longer survival
Procedure, shortened: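 Value reflects the ratio of survival in compound-treated mice to survival in vehicle-treated controls, with both groups carrying the same transplanted tumor.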

[1] = dose: 100.0 mg/kg/injection, schedule: Q01DX001 (ip), vehicle: saline
[2] = dose: 100.0 mg/kg/injection, schedule: Q01DX001 (ip), vehicle: Klucel (hydroxypropylcellulose) (HPC)
[3] = dose: 200.0 mg/kg/injection, schedule: Q01DX001 (ip), vehicle: Klucel (hydroxypropylcellulose) (HPC)
[4] = dose: 400.0 mg/kg/injection, schedule: Q01DX001 (ip), vehicle: Klucel (hydroxypropylcellulose) (HPC)
[5] = dose: 100.0 mg/kg/injection, schedule: Q04DX003 (ip), vehicle: saline with Tween-80
[6] = dose: 200.0 mg/kg/injection, schedule: Q04DX003 (ip), vehicle: saline with Tween-80

Measured: T/C

C(=C/c1ccnc(/C=C/c2ccccc2)c1)/c1ccccc1
inactive: dose: 25.0 mg/kg/injection, schedule: Q01DX009 (ip), vehicle: acetone 97 % of control and 99 % of control | dose: 50.0 mg/kg/injection, schedule: Q01DX009 (ip), vehicle: acetone 87 % of control | [1] 91 % of control | dose: 100.0 mg/kg/injection, schedule: Q01DX009 (ip), vehicle: acetone 89 % of control and 92 % of control | dose: 100.0 mg/kg/injection, schedule: Q04DX003 (ip), vehicle: acetone 94 % of control | dose: 200.0 mg/kg/injection, schedule: Q01DX001 (ip), vehicle: saline 94 % of control | dose: 200.0 mg/kg/injection, schedule: Q04DX003 (ip), vehicle: acetone 86 % of control | dose: 400.0 mg/kg/injection, schedule: Q01DX001 (ip), vehicle: saline 94 % of control

Clc1ccccc1C(CI)c1ccccc1Cl
inactive: dose: 5.0 mg/kg/injection, schedule: Q01DX001 (ip), vehicle: other 98 % of control | dose: 10.0 mg/kg/injection, schedule: Q01DX001 (ip), vehicle: other 98 % of control | dose: 20.0 mg/kg/injection, schedule: Q01DX001 (ip), vehicle: other 98 % of control | dose: 40.0 mg/kg/injection, schedule: Q01DX001 (ip), vehicle: other 100 % of control | dose: 80.0 mg/kg/injection, schedule: Q01DX001 (ip), vehicle: other 100 % of control

CCCCCCCCCCCCCCCCCC(=O)NCC[N+](C)(C)C
inactive: dose: 5.0 mg/kg/injection, schedule: Q01DX001 (ip), vehicle: saline 98 % of control | dose: 10.0 mg/kg/injection, schedule: Q01DX001 (ip), vehicle: saline 96 % of control | dose: 20.0 mg/kg/injection, schedule: Q01DX001 (ip), vehicle: saline 98 % of control | dose: 40.0 mg/kg/injection, schedule: Q01DX001 (ip), vehicle: saline 93 % of control | dose: 80.0 mg/kg/injection, schedule: Q01DX001 (ip), vehicle: saline 102 % of control

CCC1COC(=O)N1 (stereo not drawn)
inactive: dose: 25.0 mg/kg/injection, schedule: Q01DX009 (ip), vehicle: saline 102 % of control | dose: 50.0 mg/kg/injection, schedule: Q01DX001 (ip), vehicle: saline 95 % of control | dose: 50.0 mg/kg/injection, schedule: Q01DX009 (ip), vehicle: saline 105 % of control | [1] 100 % of control

CCCCCOC(=O)COc1ccc(Cl)cc1
inactive: dose: 100.0 mg/kg/injection, schedule: Q04DX002 (ip), vehicle: Klucel (hydroxypropylcellulose) (HPC) 98 % of control | dose: 200.0 mg/kg/injection, schedule: Q04DX002 (ip), vehicle: Klucel (hydroxypropylcellulose) (HPC) 98 % of control | dose: 400.0 mg/kg/injection, schedule: Q04DX002 (ip), vehicle: Klucel (hydroxypropylcellulose) (HPC) 103 % of control

COC(=O)CCN(c1ccccc1)S(=O)(=O)c1ccc(C)cc1
inactive: dose: 100.0 mg/kg/injection, schedule: Q04DX003 (ip), vehicle: Klucel (hydroxypropylcellulose) (HPC) 91 % of control | dose: 200.0 mg/kg/injection, schedule: Q04DX003 (ip), vehicle: Klucel (hydroxypropylcellulose) (HPC) 94 % of control | dose: 400.0 mg/kg/injection, schedule: Q04DX003 (ip), vehicle: Klucel (hydroxypropylcellulose) (HPC) 93 % of control

CCOC(=O)/C=C(/Nc1ccc(S(=O)(=O)F)cc1)c1ccccc1
inactive: [2] 104 % of control | [3] 100 % of control | [4] 98 % of control

CCOC(=O)c1[nH]c(C)c(CCC(=O)OC)c1C
inactive: dose: 50.0 mg/kg/injection, schedule: Q01DX009 (ip), vehicle: Klucel (hydroxypropylcellulose) (HPC) 103 % of control | [2] 95 % of control | dose: 100.0 mg/kg/injection, schedule: Q01DX009 (ip), vehicle: Klucel (hydroxypropylcellulose) (HPC) 107 % of control | [3] 93 % of control | dose: 300.0 mg/kg/injection, schedule: Q01DX009 (ip), vehicle: Klucel (hydroxypropylcellulose) (HPC) 100 % of control | [4] 95 % of control

CCCCC(CC)(CO)CO
inactive: [5] 110 % of control | [6] 100 % of control | dose: 400.0 mg/kg/injection, schedule: Q04DX003 (ip), vehicle: saline with Tween-80 111 % of control

COC(=O)c1c(C)cc(OC(=O)c2c(C)cc(OC)c(C)c2OC)c(C)c1O
inactive: dose: 50.0 mg/kg/injection, schedule: Q01DX001 (ip), vehicle: other 103 % of control | dose: 100.0 mg/kg/injection, schedule: Q01DX001 (ip), vehicle: other 97 % of control | dose: 200.0 mg/kg/injection, schedule: Q01DX001 (ip), vehicle: other 92 % of control | dose: 400.0 mg/kg/injection, schedule: Q01DX001 (ip), vehicle: other 92 % of control

CCC[CH2][Sn]([c]1ccccc1)([c]1ccccc1)[c]1ccccc1
inactive: dose: 25.6 mg/kg/injection, schedule: Q04DX002 (ip), vehicle: saline with Tween-80 90 % of control | dose: 64.0 mg/kg/injection, schedule: Q04DX002 (ip), vehicle: saline with Tween-80 90 % of control | [5] 88 % of control | dose: 160.0 mg/kg/injection, schedule: Q04DX002 (ip), vehicle: saline with Tween-80 93 % of control | [6] 96 % of control | dose: 400.0 mg/kg/injection, schedule: Q04DX002 (ip), vehicle: saline with Tween-80 97 % of control

COC(=O)C1=NN(C(C)=O)C(c2ccc(C)cc2)(c2ccc(C)cc2)C1
inactive: dose: 100.0 mg/kg/injection, schedule: Q01DX001 (ip), vehicle: steriod suspending solution 105 % of control | dose: 200.0 mg/kg/injection, schedule: Q01DX001 (ip), vehicle: steriod suspending solution 87 % of control | dose: 400.0 mg/kg/injection, schedule: Q01DX001 (ip), vehicle: steriod suspending solution 92 % of control
